Assay results published in patent publication US20090264306A1, “DNA METHYLATION BIOMARKERS IN LYMPHOID AND HEMATOPOIETIC MALIGNANCIES” (Curators of the University of Missouri, priority 2005, published 2009).

System: NHL lines RL, Daudi, DB, Raji, Granta 519 and Mec-1
Assay: Reactivation of methylated genes by DAC and TSA in NHL cell lines, real time RT-PCR
Assay type: cell-based, Human
Text: Cell Lines and Drug Treatments. Human NHL lines RL, Daudi, DB, Raji, Granta 519 and Mec-1 were maintained in RPMI 1640 media. The germinal center related cell line RL is derived from a patient with FL and the t(14,18) gene rearrangement (12), and Daudi and Raji cells are of germinal center derivation. The postgerminal center cell line DB is a DLBCL cell line that has undergone isotype switching (12). […] Granta 519 is an MCL cell line over-expressing cyclin D1 (13) and Mec-1 is a transformed B-CLL/SLL cell line (14). For gene reactivation experiments, cells were cultured in the presence of vehicle (PBS) or DAC (1.0 μM; medium changed every 24 h). After 4 days, cells were either harvested or further treated with TSA (1.0 μM) for 12 h and then harvested. Some cells were also treated with TSA alone for 12 h before harvest. Genomic DNA or total RNA was isolated using Qiagen™ kits (Qiagen, Valencia Calif.) and used for methylation and gene expression analysis, respectively.
Real-time RT-PCR. Total RNA (2 μg) was pre-treated with DNase I to remove potential DNA contaminants and reverse-transcribed in the presence of SuperScript III™ reverse transcriptase (Invitrogen, Carlsbad, Calif.). The generated cDNA was used for PCR amplification with the system described above. The Taqman™ probe and primer sets for real time PCR were purchased from Applied Biosystems (Foster City, Calif.). Separate parallel reactions were run for GAPDH cDNA using a series of diluted cDNA samples as templates to generate standardization curves. The mRNA levels were derived from the standardization curves and expressed as relative changes after normalization to those of GAPDH.

[1] = NHL cell lines, DAC 1.0 μM 4 days, TSA 1.0 μM 12 h, normalized to GAPDH, combination effect in most of the cell lines

SMILES: Nc1ncn([C@H]2C[C@H](O)[C@@H](CO)O2)c(=O)n1 [DAC, 5-aza-2-deoxycytidine]
- CCND1 expression (Granta 519 cell line, DAC alone): down regulated
- CYP27B1 gene expression after treatment [1]: weakly to moderately up-regulated
- RARβ2 gene expression after treatment [1]: weakly to moderately up-regulated
